Measurements reported in patent publication US7807854B2, “Effective use method of medicaments and method of preventing expression of side effect” (priority 2004, dated 2010).

Tests used:
Type in all cases: in vivo
[1] = tested on: adjuvant arthritis; assay: Rat adjuvant arthritis (AA) model, hind limb volume increase; conditions: for Inhibition of adjuvant arthritis (hind limb volume increase): oral once daily, Day 21
Description: In a footpad of right hind limb of 6 or 7-week-old female LEW/Crj rat (Charles River Japan, Inc.), 0.05 mL (0.6 mg/animal) of killed M. butyricum (12 mg/mL) suspended in liquid paraffin was intradermally injected to cause arthritis (Day 0). Test compound was dissolved or suspended in pure water and orally administered in a volume of 0.5 mL per 100 g of body weight of rat. Adjuvant control was received only pure water. As for the combinational administration group, an aqueous solution of KNF-299 and an aqueous solution of MTX(Sigma) were administered after being mixed before administration. Administration was conducted once a day everyday from Day 0 to end of the experiment. Evaluation of arthritis was made by measuring volumes of left and right hind limbs by using a volume meter (MK-550, Muromachi Kikai) at Day 0, 3, 8, 14, 17, and 21, and determining an increase relative to hind limb at Day 0.

[2] = tested on: transplanted heart; assay: Prolonging effect on heart graft survival between MHC-incompatible rat strains (DA donor, LEW recipient)
Description: Effect of KNF-299 was examined in allogeneic heart transplantation between MHC-incompatible rats. Using combination of DA (RT1^a) rat as a donor, and LEW (RT1^l) rat as a recipient, heterotopic heart transplantation in which heart of donor is joined to neck vessel of recipient with a cuff was conducted with reference to a literature (Microsurgery; 21, 16-21, 2001) or the like.
Drug was administered orally once a day everyday from the day of heart transplantation. MPA was prepared from the product purchased from Wako Pure Chemical Industries, Ltd. so that the concentration was 20 mg/mL in a saline containing 0.5% carboxymethyl cellulose, 0.4% Tween 80, and 0.9% benzyl alcohol, and administered in 0.1 mL/100 g B.W.
KNF-299 was dissolved in distilled water in a concentration of 0.06 mg/mL, and administered in 0.5 mL/100 g B.W. A control group was received a vehicle used for MPA administration liquid.
Cardiac pulsation of the transplanted heart was checked by inspection or palpation, and determination of rejection was made when cardiac pulsation stopped. Number of days from transplantation to determination of rejection was defined as survival time. Mean value of survival time in each group was calculated as mean survival time (MST).

[3] = tested on: skin allograft; assay: Prolonging effect on skin allograft survival between MHC-compatible rat strains (LEW donor, F344 recipient)
From the text: Five animals were included per group, and all rats were bread in separate cages. LEW(RT1^l) was selected as donor, and F344(RT1^lvl) was selected as recipient. A part of dermis (1.8×1.8 cm) on the back of recipient was excised, and after giving several drops of penicillin solution (40,000 U/mL, in saline) thereon, a full thickness skin graft (1.8×1.8 cm) prepared from abdominal part of donor was put thereon. First-aid adhesive tape (30×72 mm) was applied so that the center pad thereof lies on the graft, and secured by binding aeration tape (adhesive bandage, 3.8×15 cm) therearound. At 5 days, the first-aid adhesive tape and the aeration tape were removed by cutting with scissors.
Drug administration was conducted by orally administering 0.5 mL/100 g B.W. of drug once a day everyday from the day of skin transplantation. Control group was received distilled water. As the CsA, Sandimmun injection (50 mg/mL) diluted in distilled water was administered. As the FK506, the filling of Prograf capsule (Fujisawa Pharmaceutical Co., Ltd.) suspended in distilled water was administered. […] A combinational administration group was received a mixture prepared by mixing liquids to be administered right before administration.
Grafts were observed everyday from fifth day of transplantation at which the first-aid adhesive tape was removed, and the condition that 90% or more of graft epithelium necrotized to turn brown was determined as occurrence of rejection. Number of days from transplantation to determination of rejection was defined as a survival time.
Mean value of survival times for each group was calculated as a mean survival time (MST). In each group (n=5), the third-longest survival time was defined as a median value.

[4] = FK506 3 mg/kg oral once daily, third test (headed Test 2)
[5] = KNF-299 0.03 mg/kg oral once daily, Test 2
[6] = KNF-299 0.1 mg/kg oral once daily, third test (headed Test 2)

## CN(Cc1cnc2nc(N)nc(N)c2n1)c1ccc(C(=O)N[C@@H](CCC(=O)O)C(=O)O)cc1 [MTX, methotrexate]
[1]; MTX 0.025 mg/kg alone, not significant
  Inhibition of adjuvant arthritis (hind limb volume increase): 20%
[1]; MTX 0.03 mg/kg oral once daily, FIG. 2
  Ability to prevent onset of adjuvant arthritis: not observed
[1]; MTX 0.05 mg/kg alone, not significant
  Inhibition of adjuvant arthritis (hind limb volume increase): 35%
[1]; MTX 0.1 mg/kg oral once daily, FIG. 2
  Ability to prevent onset of adjuvant arthritis: reached maximum

## COc1c(C)c2c(c(O)c1C/C=C(\C)CCC(=O)O)C(=O)OC2 [MPA, mycophenolic acid, reference compound]
[2]; MPA 20 mg/kg oral once daily
  Survival time (day) of transplanted heart, MST: >54.4 days
[2]; MPA 20 mg/kg single administration
  Rejection preventing effect on transplanted heart (in words): insufficient

## C=CC[C@@H]1/C=C(\C)C[C@H](C)C[C@H](OC)[C@H]2O[C@@](O)(C(=O)C(=O)N3CCCC[C@H]3C(=O)O[C@H](/C(C)=C/[C@@H]3CC[C@@H](O)[C@H](OC)C3)[C@H](C)[C@@H](O)CC1=O)[C@H](C)C[C@@H]2OC [FK506, tacrolimus, reference compound]
[3]; [4]
  Survival time (day) of skin graft, MST: 9.2 days
  Survival time (day) of skin graft, Median: 9.0 days

## NC(CO)(CO)CCc1ccc(Sc2cccc(OCc3ccccc3)c2)cc1Cl [KNF-299, 2-amino-2-[4-(3-benzyloxyphenylthio)-2-chlorophenyl]ethyl-1,3-propanediol]
[3]; [5]
  Survival time (day) of skin graft, MST: 9.0 days
  Survival time (day) of skin graft, Median: 9.0 days
[3]; [6]
  Survival time (day) of skin graft, MST: 8.8 days
  Survival time (day) of skin graft, Median: 9.0 days
[3]; KNF-299 3 mg/kg oral once daily, Test 1
  Survival time (day) of skin graft, Median: >30 days
[3]; KNF-299 3 mg/kg single administration
  Effect on skin graft survival (in words): clear prolonging effect
[1]; KNF-299 0.01 mg/kg alone
  Inhibition of adjuvant arthritis (hind limb volume increase): 36%
[1]; KNF-299 0.1 mg/kg p.o. once daily, FIG. 1
  Ability to prevent onset of adjuvant arthritis: reaches almost maximum
[2]; KNF-299 0.3 mg/kg oral once daily
  Survival time (day) of transplanted heart, MST: 7.0 days
[2]; KNF-299 0.3 mg/kg single administration
  Prolonging effect on heart graft mean survival time compared to control group: 1.2 days
